ChEMBL document CHEMBL1125393, “5-(Aminomethyl)-3-aryldihydrofuran-2(3H)-ones, a new class of monoamine oxidase-B inactivators” (J Med Chem, 1992)

Assays:
[1] = target: T1, Amine oxidase [flavin-containing] B (Bos taurus, UniProt P56560); experiment: Inactivation constant against beef liver mitochondrial monoamine oxidase-B (MAO-B); settings: cattle
T1 sequence (P56560 whole entry): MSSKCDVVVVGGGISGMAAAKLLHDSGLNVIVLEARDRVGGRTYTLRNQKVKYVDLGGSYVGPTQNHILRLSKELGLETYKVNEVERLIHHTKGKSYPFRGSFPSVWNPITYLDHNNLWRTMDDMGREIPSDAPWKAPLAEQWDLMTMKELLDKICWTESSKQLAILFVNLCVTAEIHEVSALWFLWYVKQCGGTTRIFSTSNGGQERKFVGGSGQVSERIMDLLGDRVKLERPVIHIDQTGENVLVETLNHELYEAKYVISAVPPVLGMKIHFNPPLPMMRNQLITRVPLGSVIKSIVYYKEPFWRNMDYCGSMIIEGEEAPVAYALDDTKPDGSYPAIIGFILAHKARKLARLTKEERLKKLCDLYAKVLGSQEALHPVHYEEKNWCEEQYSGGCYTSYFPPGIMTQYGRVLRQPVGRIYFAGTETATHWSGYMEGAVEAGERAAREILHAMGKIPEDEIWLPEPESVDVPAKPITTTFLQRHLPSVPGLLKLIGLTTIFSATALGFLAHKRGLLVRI

[2] = target: T1, Amine oxidase [flavin-containing] B; experiment: Inhibitory constant against beef liver mitochondrial monoamine oxidase-B (MAO-B)

Structure (SMILES) | kinact [1] [s⁻¹] | Ki [2] [mM]
COc1ccc([C@H]2C[C@@H](CN)OC2=O)cc1 | 0.074 | 6.67
COc1ccc([C@@H]2C[C@@H](CN)OC2=O)cc1 | 0.383 | 18.2
NC[C@@H]1C[C@H](c2ccccc2)C(=O)O1 | 0.0428 | 4.2

Continued by falling Ki [2], values first:

kinact [1] [s⁻¹] | Ki [2] [mM] | Structure (SMILES)
0.0133 | 12.5 | COc1ccc(N2CC(CN)OC2=O)cc1 (stereo not given)
0.0357 | 5.1 | NC[C@@H]1C[C@@H](c2ccccc2)C(=O)O1
